Data: patent US20240066006A1, “Antiviral Compounds and Applications Thereof” (priority 2020, published 2024)
Where two headings read alike, the source gives them in different places.

Key:
MHV-1 [1] = assay: Viral titer by plaque assay, DBT cells infected with MHV-1; format: cell-based, murine hepatitis virus
MHV-1 [2] = assay: Syncytium formation in DBT cells infected with MHV-1 (microscopy images); format: cell-based, murine hepatitis virus; conditions: for inhibitory effect on syncytium formation and cell-cell fusion / inhibitory effect on syncytium formation and fusion: DBT cells pre-treated three hours, 893 10 μM, images at 48 hours; for inhibitory effect on syncytium formation and cell-cell fusion: NAV2729 5 μM, SecinH3 30 μM; for inhibitory effect on syncytium formation and fusion: YM201636 400 nM, apilimod 50 nM; for syncytium formation induced by MHV-1: DBT cells, 4 μM
in vivo = conditions: po
Serum protein binding = format: in vitro ADME
ACE2 receptor = format: cell-based; conditions: pre-treated VeroE6 cells
[3] = in vivo
MHV-A59 [4] = format: cell-based, murine hepatitis virus; conditions: DBT cells, MOI 0.1, plaque assay at 24 or 48 hours
[5] = system: endolysosomal trafficking; assay: Inhibition of endolysosomal trafficking in vitro; format: cell-based
MHV-A59 [6] = assay: Syncytium formation in DBT cells infected with MHV-A59 (phase contrast microscopy); format: cell-based, murine hepatitis virus; conditions: 4 μM, MOI 0.1, 24 hours post infection
Experimental: To determine whether PP2A activation mitigates syncytium formation induced by coronaviruses, DBT cells were treated with 4 μM of compound 893 before or after infection with MHV-A59 at a multiplicity of infection (MOI) of 0.1 and then assessed for syncytium formation via phase contrast microscopy 24 hours post infection.

MHV-1 [7] = assay: MHV-1 intranasal infection of male A/J mice, lung viral titer and lung weight; conditions: 120 mg/kg by gavage 6 hours prior to and 18 hours after infection, 500 pfu MHV-1 intranasally, 24 hours post-infection
[8] = Pharmacokinetics and tissue levels upon oral administration
[9] = DBT cells pre-treated three hours, 893 10 μM, NAV2729 5 μM, SecinH3 30 μM, plaque assay 48 hours post infection
[10] = after viral infection (post-treatment)

Compound: OCCN1CCN(CCCN2c3ccccc3Sc3ccc(Cl)cc32)CC1 [PPZ, perphenazine, reference compound]
- reduction of viral titers of MHV-1 (MHV-1 [1]; DBT cells, pretreatment with PP2A agonist): to a degree similar to that of compound 893
- syncytium formation and fusion (MHV-1 [2]; DBT cells infected with MHV-1, pretreatment with PP2A agonist): as efficiently as compound 893

Compound: COc1nc(-c2ccc3c(c2)OCO3)n(-c2ccc(NC(=O)CSc3ccccc3)cc2)n1 [SecinH3, reference compound]
- reduction of viral titers of MHV-1 (MHV-1 [1]; [9]): about 1 log
- inhibitory effect on syncytium formation and cell-cell fusion (MHV-1 [2]): inhibitory effect

Compound: Nc1ccc(C(=O)Nc2cccc(-c3nc(N4CCOCC4)c4oc5ncccc5c4n3)c2)cn1 [YM201636]
- inhibitory effect on syncytium formation and fusion (MHV-1 [2]): inhibitory effect

Compound: Cc1cccc(/C=N/Nc2cc(N3CCOCC3)nc(OCCc3ccccn3)n2)c1 [apilimod]
- inhibitory effect on syncytium formation and fusion (MHV-1 [2]): inhibitory effect

Compound: CCCCCCCCc1ccc([C@H]2CCN[C@@H]2CO)cc1.Cl [compound 893]
- half-life (in vivo): 10.6 h
- reduction of viral titers of MHV-1 (MHV-1 [1]; [9]): ~3 log
- reduction of viral titers of MHV-1 (MHV-1 [1]; DBT cells pre-treated three hours, 893 10 μM, YM201636 400 nM, apilimod 50 nM, plaque assay 48 hours post infection): ~3 logs
- reduction of viral titers of MHV-1 (MHV-1 [1]; DBT cells, 4-5 μM added one hour after infection, MOI 0.1, plaque assay at 24 or 48 hours): 3-4 logs
- reduction of viral titers of MHV-1 (MHV-1 [1]; DBT cells, 4-5 μM for three hours prior to infection, MOI 0.1, washed 1 hour after infection, plaque assay at 24 or 48 hours): 3-4 logs
- binding by serum proteins (Serum protein binding): highly bound by serum proteins
- ACE2 receptor localization at the outer cell membrane (ACE2 receptor): reduction of ACE2 receptor localization at the outer cell membrane
- oral bioavailability [3]: orally bioavailable
- reduction of viral titers of MHV-A59 (MHV-A59 [4]; 4-5 μM added one hour after infection): 3-4 logs
- reduction of viral titers of MHV-A59 (MHV-A59 [4]; 4-5 μM for three hours prior to infection, washed 1 hour after infection): 3-4 logs
- concentration required to inhibit endolysosomal trafficking [5]: 1 to 10 µM
- inhibitory effect on syncytium formation and cell-cell fusion (MHV-1 [2]): inhibitory effect
- inhibitory effect on syncytium formation and fusion (MHV-1 [2]): greater for 893 than for YM201636 or apilimod
- syncytium formation induced by MHV-1 (MHV-1 [2]; [10]): potently prevented syncytium formation
- syncytium formation induced by MHV-1 (MHV-1 [2]; pre-treatment): potently prevented syncytium formation
- syncytium formation induced by MHV-A59 (MHV-A59 [6]; [10]): potently prevented syncytium formation
- syncytium formation induced by MHV-A59 (MHV-A59 [6]; pre-treatment): potently prevented syncytium formation
- lung weight (MHV-1 [7]): reduced lung weight
- reduction in infectious virus within the lungs (MHV-1 [7]): 2 log
- resistance to metabolism (Resistance to metabolism): resistant to metabolism
- total drug levels in the lungs relative to concentration required in vitro ([8]; compared with 1-10 μM required in vitro): 300 fold
- concentration at 5 days ([8]; lungs, brain, liver (many tissues), po, 120 mg/kg): > 100 µM

Compound: NAV2729 [reference compound]
- reduction of viral titers of MHV-1 (MHV-1 [1]; [9]): about 1 log
- inhibitory effect on syncytium formation and cell-cell fusion (MHV-1 [2]): inhibitory effect
